Laboratory results as given in ChEMBL document CHEMBL1145297, “Synthesis, aerobic cytotoxicity, and radiosensitizing activity of novel 2,4-dinitrophenylamine tethered 5-fluorouracil and hydroxyurea” (Bioorg Med Chem Lett, 2006).
The source made the active and inactive calls. No cut-off for these calls is given here.

How the values were obtained:
HT-29 [1] = assay: Cytotoxicity against HT29 cell line without 4 Gy [60Co]-induced irradiation by MTT assay relative to control; assay type: cell-based; details: human
HT-29 [2] = assay: Cytotoxicity against 4 Gy [60Co] irradiated HT29 cell line by MTT assay relative to control; assay type: cell-based; details: human
HT-29 [3] = assay: Radiosensitizing activity in 4 Gy [60Co] irradiated HT29 cells; assay type: functional, cell-based; details: Homo sapiens
SP2 = assay: Radiosensitizing activity in SP2 cell line; assay type: functional, cell-based; details: Mus musculus
HT-29 [4] = assay: Inhibition of viability in 4 Gy [60Co] irradiated HT29 cells at 10 uM relative to control; assay type: functional, Homo sapiens
HT-29 [5] = assay: Radiosensitizing activity in 4 Gy [60Co] irradiated HT29 cells at 2.5 uM; assay type: functional, cell-based; details: Homo sapiens
HT-29 [6] = assay: Cytotoxicity against HT29 cell line below 2.5 uM; assay type: cell-based; details: human

Compound | Activity (HT-29 [1]) | Activity (HT-29 [2]) | Activity (HT-29 [3]) | Activity (SP2) | Activity (HT-29 [4]) | Activity (HT-29 [5]) | Activity (HT-29 [6])
CCCNc1ccc([N+](=O)[O-])cc1[N+](=O)[O-] | 20% | 20% | inactive |  |  |  | 
NC(=O)NO [HYDROXYUREA] | 25% | 25% |  |  |  |  | 
O=c1[nH]cc(F)c(=O)n1CCCNc1ccc([N+](=O)[O-])cc1[N+](=O)[O-] | Not Active | Not Active |  | Active | 60% | Active | 
O=c1[nH]cc(F)c(=O)[nH]1 [FLUOROURACIL] | 65% | 65% | inactive |  |  |  | Not Active
NC(=O)NOCCCNc1ccc([N+](=O)[O-])cc1[N+](=O)[O-] | Not Active | Not Active |  | Active | 60% | Active | 
